In patent US10450316B2, “Certain protein kinase inhibitor” (Chongqing Fochon Pharmaceutical Co., Ltd., priority 2015, dated 2019):

System: BE(2)-C cell
Experiment: Cell proliferation assay (MTS) in BE(2)-C cells
Assay type: cell-based
Details: Homo sapiens, inhibition of BE(2)-C cell proliferation, 48 h
Protocol: MTS testing kit was purchased from Promega. The DMEM, Fetal bovine serum and Penicillin-Streptomycin were purchased from Gibco. Dimethyl sulfoxide (DMSO) was purchased from Sigma.
To investigate whether a compound is able to inhibit the activity of CDK4/6 in cells, mechanism-based assays using BE(2)-C cell (ATCC® number:CRL-2268) were developed. In the assay, inhibition of CDK4/6 was detected by the inhibition of BE(2)-C cell cells proliferation. BE(2)-C cell cells were cultured in culture flasks to 40-80% confluence in DMEM plus 10% fetal bovine serum. Cells were collected and plated onto 96-well plates at cell density of 3000 cells/well. Plates were incubated overnight at 37° C., with 5% CO2 to adhere. Compounds were added to the plates, the final compound concentrations were 10000, 3333, 1111, […], 123.5, 41.2, 13.7, 4.6 and 1.5 nM. Place plates at 37° C., with 5% CO2 for 48 h. After removing the medium, 20 μl MTS/100 μl medium mixture solution were added to each well and incubate the plates for exactly 2 hours. The reaction was terminated by adding 25 μl 10% SDS per well. Measure absorbance at 490 nm and 650 nm (reference wavelength). IC50 was calculated using GraphPad Prism 5.0.
Select compounds prepared as described above were assayed according to the biological procedures described herein. “++++” stands for IC50 value below about 10 nM. “+++” stands for IC50 value between greater than about 10 nM to about 100 nM. “++” stands for IC50 value between greater than about 100 nM to about […]. “+” stands for IC50 value greater than 1 μM.

Compound | IC50 [nM]
C[C@@H]1CCc2nc3c(F)cc(-c4nc(Nc5ccc(CN6CCC7(CCN(C)CC7)CC6)cn5)ncc4F)cc3n21 [Example 93, (R)-5-fluoro-4-(5-fluoro-1-methyl-2,3-dihydro-1H-benzo[d]pyrrolo[1,2-a]imidazol-7-yl)-N-(5-((9-methyl-3,9-diazaspiro[5.5]undecan-3-yl)methyl)pyridin-2-yl)pyrimidin-2-amine] | > 100
Fc1cnc(Nc2ccc(N3CCNCC3)cn2)nc1-c1cc(F)c2nc3n(c2c1)[C@H](C(F)F)CC3 [Example 38, (S)-4-(1-(difluoromethyl)-5-fluoro-2,3-dihydro-1H-benzo[d]pyrrolo[1,2-a]imidazol-7-yl)-5-fluoro-N-(5-(piperazin-1-yl)pyridin-2-yl)pyrimidin-2-amine] | > 100
CCN1CCN(Cc2cnc(Nc3cc(-c4cc(F)c5nc6n(c5c4)C(C)(C)CC6)c(F)cn3)nc2)CC1 [Example 166, 5-((4-ethylpiperazin-1-yl)methyl)-N-(5-fluoro-4-(5-fluoro-1,1-dimethyl-2,3-dihydro-1H-benzo[d]pyrrolo[1,2-a]imidazol-7-yl)pyridin-2-yl)pyrimidin-2-amine] | > 100
CN1CCN(Cc2ccc(Nc3ncc(F)c(-c4cc(F)c5nc6n(c5c4)[C@H](C(F)(F)F)CC6)n3)nc2)CC1 [Example 17, (S)-5-fluoro-4-(5-fluoro-1-(trifluoromethyl)-2,3-dihydro-1H-benzo[d]pyrrolo[1,2-a]imidazol-7-yl)-N-(5-((4-methylpiperazin-1-yl)methyl)pyridin-2-yl)pyrimidin-2-amine] | 10 to 100
CN1CC2CCC(C1)N2Cc1ccc(Nc2ncc(F)c(-c3cc(F)c4nc5n(c4c3)[C@H](C(F)F)CC5)n2)nc1 [Example 55, 4-((S)-1-(difluoromethyl)-5-fluoro-2,3-dihydro-1H-benzo[d]pyrrolo[1,2-a]imidazol-7-yl)-5-fluoro-N-(5-((3-methyl-3,8-diazabicyclo[3.2.1]octan-8-yl)methyl)pyridin-2-yl)pyrimidin-2-amine] | 10 to 100
CN1C2CCC1CN(Cc1ccc(Nc3ncc(F)c(-c4cc(F)c5nc6n(c5c4)[C@H](C(F)(F)F)CC6)n3)nc1)C2 [Example 80, 5-fluoro-4-((S)-5-fluoro-1-(trifluoromethyl)-2,3-dihydro-1H-benzo[d]pyrrolo[1,2-a]imidazol-7-yl)-N-(5-((8-methyl-3,8-diazabicyclo[3.2.1]octan-3-yl)methyl)pyridin-2-yl)pyrimidin-2-amine] | 10 to 100
COC[C@H]1CCc2nc3c(F)cc(-c4nc(Nc5ccc(CN6CCN(C)CC6)cn5)ncc4F)cc3n21 [Example 159, (R)-5-fluoro-4-(5-fluoro-1-(methoxymethyl)-2,3-dihydro-1H-benzo[d]pyrrolo[1,2-a]imidazol-7-yl)-N-(5-((4-methylpiperazin-1-yl)methyl)pyridin-2-yl)pyrimidin-2-amine] | > 1000
CCN1CCN(Cc2ccc(Nc3ncc(F)c(-c4cc(F)c5nc6n(c5c4)[C@@H](COC)CC6)n3)nc2)CC1 [Example 160, (R)-N-(5-((4-ethylpiperazin-1-yl)methyl)pyridin-2-yl)-5-fluoro-4-(5-fluoro-1-(methoxymethyl)-2,3-dihydro-1H-benzo[d]pyrrolo[1,2-a]imidazol-7-yl)pyrimidin-2-amine] | > 100
C[C@@H]1CCc2nc3c(F)cc(-c4nc(Nc5ccc(CN6CC7CNCC7C6)cn5)ncc4F)cc3n21 (stereo partly drawn) [Example 98, 5-fluoro-4-((R)-5-fluoro-1-methyl-2,3-dihydro-1H-benzo[d]pyrrolo[1,2-a]imidazol-7-yl)-N-(5-((hexahydropyrrolo[3,4-c]pyrrol-2(1H)-yl)methyl)pyridin-2-yl)pyrimidin-2-amine] | > 100
CN1CC2CN(Cc3ccc(Nc4ncc(F)c(-c5cc(F)c6nc7n(c6c5)C(C)(C)CC7)n4)nc3)CC2C1 (stereo not shown) [Example 124, 5-fluoro-4-(5-fluoro-1,1-dimethyl-2,3-dihydro-1H-benzo[d]pyrrolo[1,2-a]imidazol-7-yl)-N-(5-((5-methylhexahydropyrrolo[3,4-c]pyrrol-2(1H)-yl)methyl)pyridin-2-yl)pyrimidin-2-amine] | 10 to 100
